In PubChem BioAssay (NCI):
In brackets after ≈: the same amount, converted by molar mass.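 How tested: cells in 96-well plates exposed to compound for 48 hours at five concentrations. GI50 = concentration required for 50% inhibition of growth. At the TGI there is no net growth.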

These compounds were tested on NCI/ADR-RES ovarian (assay: NCI-60 cell line screen, 48 h).

SMILES | GI50 | TGI
COc1cc(N(CCC#N)CCC#N)ccc1/C(N=Nc1ccc(Cl)cc1)=N/NC(=O)c1cc(Br)ccc1O | 53.2 µg/mL (≈ 87.3 µM) | > 150 µg/mL
O=C(O)CCNc1ncnc2nc[nH]c12 |  | > 100 µM

What follows are compounds tested on 786-0 renal (assay: NCI-60 cell line screen, 48 h).

SMILES | TGI | GI50
Oc1cc(Cl)cc2cccnc12 | > 54.9 µM | 
COc1cc(N(CCC#N)CCC#N)ccc1/C(N=Nc1ccc(Cl)cc1)=N/NC(=O)c1cc(Br)ccc1O | > 150 µg/mL | 77.1 µg/mL (≈ 127 µM)
O=[N+]([O-])c1ccc2occ3c2c1CCC3 | > 100 µM | 
Cc1c2n(c(=O)[nH]c1=O)C1OC(CO)C(N=[N+]=[N-])C1O2 (stereo not given) | > 100 µM | 
O=C(O)CCNc1ncnc2nc[nH]c12 | > 100 µM | 

These compounds were tested on SR leukemia (assay: NCI-60 cell line screen, 48 h).

SMILES | TGI | GI50
Oc1cc(Cl)cc2cccnc12 | 4.27 µM | 
COc1cc(N(CCC#N)CCC#N)ccc1/C(N=Nc1ccc(Cl)cc1)=N/NC(=O)c1cc(Br)ccc1O | > 150 µg/mL | 96.3 µg/mL (≈ 158 µM)
O=[N+]([O-])c1ccc2occ3c2c1CCC3 | > 100 µM | 
Cc1c2n(c(=O)[nH]c1=O)C1OC(CO)C(N=[N+]=[N-])C1O2 (stereo not given) | > 100 µM | 
O=C(O)CCNc1ncnc2nc[nH]c12 | > 100 µM | 
Nc1c(C(=O)N/N=C/c2ccccc2)sc(=S)n1-c1ccccc1 | > 100 µM | 

What follows are compounds tested on COLO 205 colon (assay: NCI-60 cell line screen, 48 h).

SMILES | TGI | GI50
Oc1cc(Cl)cc2cccnc12 | 26.1 µM | 
COc1cc(N(CCC#N)CCC#N)ccc1/C(N=Nc1ccc(Cl)cc1)=N/NC(=O)c1cc(Br)ccc1O | 127 µg/mL | 41.7 µg/mL (≈ 68.5 µM)
O=[N+]([O-])c1ccc2occ3c2c1CCC3 | > 100 µM | 
Cc1c2n(c(=O)[nH]c1=O)C1OC(CO)C(N=[N+]=[N-])C1O2 (stereo not given) | > 100 µM | 
O=C(O)CCNc1ncnc2nc[nH]c12 | > 100 µM | 
Nc1c(C(=O)N/N=C/c2ccccc2)sc(=S)n1-c1ccccc1 | > 100 µM | 

The compounds below were run on TK-10 renal (assay: NCI-60 cell line screen, 48 h).

SMILES | TGI
Oc1cc(Cl)cc2cccnc12 | > 100 µM
O=[N+]([O-])c1ccc2occ3c2c1CCC3 | > 100 µM
Cc1c2n(c(=O)[nH]c1=O)C1OC(CO)C(N=[N+]=[N-])C1O2 (stereo not given) | > 100 µM
O=C(O)CCNc1ncnc2nc[nH]c12 | > 100 µM
Nc1c(C(=O)N/N=C/c2ccccc2)sc(=S)n1-c1ccccc1 | > 100 µM

Each compound was assayed on MDA-MB-435 (assay: NCI-60 cell line screen, 48 h).

SMILES | TGI | GI50
Oc1cc(Cl)cc2cccnc12 | > 77.6 µM | 
COc1cc(N(CCC#N)CCC#N)ccc1/C(N=Nc1ccc(Cl)cc1)=N/NC(=O)c1cc(Br)ccc1O | > 150 µg/mL | > 150 µg/mL
O=C(O)CCNc1ncnc2nc[nH]c12 | > 100 µM | 

What follows are compounds tested on OVCAR-4 ovarian (assay: NCI-60 cell line screen, 48 h).

SMILES | TGI | GI50
Oc1cc(Cl)cc2cccnc12 | > 100 µM | 
COc1cc(N(CCC#N)CCC#N)ccc1/C(N=Nc1ccc(Cl)cc1)=N/NC(=O)c1cc(Br)ccc1O | 37 µg/mL | 11.1 µg/mL (≈ 18.2 µM)
O=[N+]([O-])c1ccc2occ3c2c1CCC3 | > 100 µM | 
Cc1c2n(c(=O)[nH]c1=O)C1OC(CO)C(N=[N+]=[N-])C1O2 (stereo not given) | > 100 µM | 
O=C(O)CCNc1ncnc2nc[nH]c12 | > 100 µM | 

Each compound was assayed on MDA-N (assay: NCI-60 cell line screen, 48 h).

SMILES | TGI | GI50
Oc1cc(Cl)cc2cccnc12 | > 100 µM | 
COc1cc(N(CCC#N)CCC#N)ccc1/C(N=Nc1ccc(Cl)cc1)=N/NC(=O)c1cc(Br)ccc1O | > 150 µg/mL | 90.3 µg/mL (≈ 148 µM)
O=C(O)CCNc1ncnc2nc[nH]c12 | > 100 µM | 

What follows are compounds tested on HOP-92 NSCLC (assay: NCI-60 cell line screen, 48 h).

SMILES | TGI | GI50
Oc1cc(Cl)cc2cccnc12 | > 100 µM | 
COc1cc(N(CCC#N)CCC#N)ccc1/C(N=Nc1ccc(Cl)cc1)=N/NC(=O)c1cc(Br)ccc1O | > 150 µg/mL | > 150 µg/mL
O=[N+]([O-])c1ccc2occ3c2c1CCC3 | > 100 µM | 
Cc1c2n(c(=O)[nH]c1=O)C1OC(CO)C(N=[N+]=[N-])C1O2 (stereo not given) | > 100 µM | 
O=C(O)CCNc1ncnc2nc[nH]c12 | > 100 µM | 
Nc1c(C(=O)N/N=C/c2ccccc2)sc(=S)n1-c1ccccc1 | > 100 µM | 

What follows are compounds tested on A498 renal (assay: NCI-60 cell line screen, 48 h).

SMILES | TGI | GI50
Oc1cc(Cl)cc2cccnc12 | 59.6 µM | 
COc1cc(N(CCC#N)CCC#N)ccc1/C(N=Nc1ccc(Cl)cc1)=N/NC(=O)c1cc(Br)ccc1O | > 150 µg/mL | > 150 µg/mL
O=[N+]([O-])c1ccc2occ3c2c1CCC3 | > 100 µM | 
Cc1c2n(c(=O)[nH]c1=O)C1OC(CO)C(N=[N+]=[N-])C1O2 (stereo not given) | > 100 µM | 
O=C(O)CCNc1ncnc2nc[nH]c12 | > 100 µM | 

The compounds below were run on SNB-19 CNS (assay: NCI-60 cell line screen, 48 h).

SMILES | TGI | GI50
Oc1cc(Cl)cc2cccnc12 | > 100 µM | 
COc1cc(N(CCC#N)CCC#N)ccc1/C(N=Nc1ccc(Cl)cc1)=N/NC(=O)c1cc(Br)ccc1O | > 150 µg/mL | > 150 µg/mL
O=[N+]([O-])c1ccc2occ3c2c1CCC3 | > 100 µM | 
Cc1c2n(c(=O)[nH]c1=O)C1OC(CO)C(N=[N+]=[N-])C1O2 (stereo not given) | > 100 µM | 
O=C(O)CCNc1ncnc2nc[nH]c12 | > 100 µM | 
Nc1c(C(=O)N/N=C/c2ccccc2)sc(=S)n1-c1ccccc1 | > 100 µM | 

What follows are compounds tested on SF-295 CNS (assay: NCI-60 cell line screen, 48 h).

SMILES | TGI | GI50
Oc1cc(Cl)cc2cccnc12 | 15.9 µM | 
COc1cc(N(CCC#N)CCC#N)ccc1/C(N=Nc1ccc(Cl)cc1)=N/NC(=O)c1cc(Br)ccc1O | > 150 µg/mL | 79.4 µg/mL (≈ 130 µM)
O=[N+]([O-])c1ccc2occ3c2c1CCC3 | > 100 µM | 
Cc1c2n(c(=O)[nH]c1=O)C1OC(CO)C(N=[N+]=[N-])C1O2 (stereo not given) | > 100 µM | 
O=C(O)CCNc1ncnc2nc[nH]c12 | > 100 µM | 
Nc1c(C(=O)N/N=C/c2ccccc2)sc(=S)n1-c1ccccc1 | > 100 µM | 

These compounds were tested on OVCAR-5 ovarian (assay: NCI-60 cell line screen, 48 h).

SMILES | TGI | GI50
Oc1cc(Cl)cc2cccnc12 | > 100 µM | 
COc1cc(N(CCC#N)CCC#N)ccc1/C(N=Nc1ccc(Cl)cc1)=N/NC(=O)c1cc(Br)ccc1O | > 150 µg/mL | > 150 µg/mL
O=[N+]([O-])c1ccc2occ3c2c1CCC3 | > 100 µM | 
O=C(O)CCNc1ncnc2nc[nH]c12 | > 100 µM | 

The compounds below were run on NCI-H226 lung (assay: NCI-60 cell line screen, 48 h).

SMILES | TGI | GI50
Oc1cc(Cl)cc2cccnc12 | 69.6 µM | 
COc1cc(N(CCC#N)CCC#N)ccc1/C(N=Nc1ccc(Cl)cc1)=N/NC(=O)c1cc(Br)ccc1O | 128 µg/mL | 32.4 µg/mL (≈ 53.2 µM)
O=[N+]([O-])c1ccc2occ3c2c1CCC3 | > 100 µM | 
Cc1c2n(c(=O)[nH]c1=O)C1OC(CO)C(N=[N+]=[N-])C1O2 (stereo not given) | > 100 µM | 
O=C(O)CCNc1ncnc2nc[nH]c12 | > 100 µM | 
Nc1c(C(=O)N/N=C/c2ccccc2)sc(=S)n1-c1ccccc1 | > 100 µM | 

These compounds were tested on RPMI-8226 leukemia (assay: NCI-60 cell line screen, 48 h).

SMILES | TGI | GI50
Oc1cc(Cl)cc2cccnc12 | 5.31 µM | 
COc1cc(N(CCC#N)CCC#N)ccc1/C(N=Nc1ccc(Cl)cc1)=N/NC(=O)c1cc(Br)ccc1O | > 150 µg/mL | 102 µg/mL (≈ 167 µM)
O=[N+]([O-])c1ccc2occ3c2c1CCC3 | > 100 µM | 
Cc1c2n(c(=O)[nH]c1=O)C1OC(CO)C(N=[N+]=[N-])C1O2 (stereo not given) | > 100 µM | 
O=C(O)CCNc1ncnc2nc[nH]c12 | > 100 µM | 
Nc1c(C(=O)N/N=C/c2ccccc2)sc(=S)n1-c1ccccc1 | > 100 µM | 

The compounds below were run on CCRF-CEM leukemia (assay: NCI-60 cell line screen, 48 h).

SMILES | TGI | GI50
Oc1cc(Cl)cc2cccnc12 | 1.95 µM | 
COc1cc(N(CCC#N)CCC#N)ccc1/C(N=Nc1ccc(Cl)cc1)=N/NC(=O)c1cc(Br)ccc1O | > 150 µg/mL | 74 µg/mL (≈ 122 µM)
O=[N+]([O-])c1ccc2occ3c2c1CCC3 | > 100 µM | 
Cc1c2n(c(=O)[nH]c1=O)C1OC(CO)C(N=[N+]=[N-])C1O2 (stereo not given) | > 100 µM | 
O=C(O)CCNc1ncnc2nc[nH]c12 | > 100 µM | 
Nc1c(C(=O)N/N=C/c2ccccc2)sc(=S)n1-c1ccccc1 | > 100 µM | 
